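Step 1: Grow cells in 96-well plates. Step 2: Expose to compound for 48 hours at 5 concentrations. Step 3: Interpolate endpoints linearly; if unreached, use highest concentration. GI50 = concentration required for 50% inhibition of growth.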 Activity calls are given as the source filed them. Cut-off read from the data, not from the text of the source: active = GI50 up to about 1.1 µM and inactive = higher.
Experiments:
Assay in all cases: NCI anticancer screen, dose series, 48 h
[1] = tested on: 786-0
[2] = tested on: CCRF-CEM
[3] = tested on: HOP-62
[4] = tested on: HT-29
[5] = tested on: LOX IMVI
[6] = tested on: MDA-MB-231
[7] = tested on: NCI-H226
[8] = tested on: NCI-H460
[9] = tested on: OVCAR-4
[10] = tested on: SF-539
[11] = tested on: SK-OV-3
[12] = tested on: SW-620
[13] = tested on: HCT-15
[14] = tested on: Hs-578T
[15] = tested on: K562
[16] = tested on: MCF7
[17] = tested on: MOLT-4
[18] = tested on: SK-MEL-2
[19] = tested on: SR

Row | SMILES | GI50 [1] | GI50 [2] | GI50 [3] | GI50 [4] | GI50 [5] | GI50 [6] | GI50 [7] | GI50 [8] | GI50 [9] | GI50 [10] | GI50 [11] | GI50 [12] | GI50 [13] | GI50 [14] | GI50 [15] | GI50 [16] | GI50 [17] | GI50 [18] | GI50 [19]
1 | Brc1ccc2c(-c3csc(-c4c[nH]c5ccccc45)n3)c[nH]c2c1 | 17.9 µM (inactive) | 14.7 µM (inactive) | 15 µM (inactive) | 15.6 µM (inactive) | 15.5 µM (inactive) | 16.1 µM (inactive) | 14.5 µM (inactive) | 16.1 µM (inactive) | 16 µM (inactive) | 16 µM (inactive) | 18.9 µM (inactive) | 16.5 µM (inactive) |  |  |  |  |  |  | 
2 | COc1ccc(-c2cc(-c3ccccc3)nc3c2CC(=O)Nc2ccccc2-3)cc1OC | 4.79 µM (inactive) | > 100 µM (inactive) | 1.81 µM (inactive) | 0.719 µM (active) | 2 µM (inactive) | 1.32 µM (inactive) | 2.92 µM (inactive) | > 100 µM (inactive) | 1.2 µM (inactive) | 13.9 µM (inactive) | 5.74 µM (inactive) | > 21.4 µM (inactive) | > 100 µM | 0.855 µM (active) | 1.45 µM (inactive) | > 20 µM (inactive) | > 100 µM (inactive) | > 100 µM (inactive) | 8.18 µM (inactive)
3 | CCOC(=O)/C(=C\n1c(=O)sc2ccccc21)C(=O)c1ccccc1 | > 100 µM (inactive) | > 100 µM (inactive) | > 100 µM (inactive) | > 100 µM (inactive) | > 100 µM (inactive) | 63 µM (inactive) | > 100 µM (inactive) | > 100 µM (inactive) | > 100 µM (inactive) | > 100 µM (inactive) | > 100 µM (inactive) | > 100 µM (inactive) | > 100 µM | 39.6 µM (inactive) | 44.3 µM (inactive) | > 100 µM (inactive) | > 100 µM (inactive) | > 100 µM (inactive) | 58.7 µM (inactive)
4 | COC(=O)/C=C/C1C2C3(CCC(C)C12C)OCCS3 (stereo not drawn) | > 100 µM (inactive) | 34.3 µM (inactive) | > 100 µM (inactive) | > 100 µM (inactive) | > 100 µM (inactive) |  | > 100 µM (inactive) | > 100 µM (inactive) | > 100 µM (inactive) | > 100 µM (inactive) | > 100 µM (inactive) | > 100 µM (inactive) | > 100 µM |  | > 100 µM (inactive) |  | 40.6 µM (inactive) | > 100 µM (inactive) | 43.1 µM (inactive)
5 | Cc1c2ccncc2c(C)c2c1[nH]c1ccc(Cl)cc12 | 1.07 µM (active) | 1.36 µM (inactive) | 3.85 µM (inactive) | 2.2 µM (inactive) | 1.55 µM (inactive) |  | 3.17 µM (inactive) | 1.54 µM (inactive) | 2.11 µM (inactive) | 2.44 µM (inactive) | 7.19 µM (inactive) | 1.52 µM (inactive) | 1.75 µM |  | 1.62 µM (inactive) | 2.17 µM (inactive) |  | 3.51 µM (inactive) | 
6 | O=C1CC2CCN(C(=O)c3ccccc3)CC2CCN1 (stereo not drawn) | > 100 µM (inactive) | > 100 µM (inactive) | > 100 µM (inactive) | > 100 µM (inactive) | > 100 µM (inactive) |  | > 100 µM (inactive) | > 100 µM (inactive) | > 100 µM (inactive) | > 100 µM (inactive) | > 100 µM (inactive) | > 100 µM (inactive) | > 100 µM |  | > 100 µM (inactive) |  | > 100 µM (inactive) | 0.578 µM (active) | > 100 µM (inactive)
7 | OC(CCNCc1ccccc1)c1ccc2ccccc2c1 (stereo not drawn) | 20.1 µM (inactive) | 1.68 µM (inactive) | 19.3 µM (inactive) | 22.9 µM (inactive) | 13.5 µM (inactive) | 17.4 µM (inactive) | 23.8 µM (inactive) | 17.3 µM (inactive) | 28.4 µM (inactive) | 16.9 µM (inactive) |  | 19.7 µM (inactive) | 20.5 µM | 20.6 µM (inactive) | 21.6 µM (inactive) | 24.9 µM (inactive) | 31.1 µM (inactive) | 20.5 µM (inactive) | 35.6 µM (inactive)
8 | CSc1nc(NC2OC(COC(C)=O)C(OC(C)=O)C(OC(C)=O)C2OC(C)=O)c(-c2csc(N)n2)c(=O)n1C (stereo not drawn) | 18.5 µM (inactive) | > 100 µM (inactive) | 24.2 µM (inactive) | > 100 µM (inactive) | 93.3 µM (inactive) |  | 15.7 µM (inactive) | 39.1 µM (inactive) | 21.8 µM (inactive) | 25.2 µM (inactive) | 50.7 µM (inactive) | > 100 µM (inactive) | 97.1 µM |  | > 100 µM (inactive) |  | > 100 µM (inactive) | 28.6 µM (inactive) | > 100 µM (inactive)
9 | COC(=O)C12C3C4C5C3(C#N)C1C5(C(=O)OC)C42C(=O)N(C(C)C)C(C)C (stereo not drawn) | > 100 µM (inactive) | > 46 µM (inactive) | > 100 µM (inactive) | > 100 µM (inactive) | 58.1 µM (inactive) |  | > 100 µM (inactive) | > 57.5 µM (inactive) | > 100 µM (inactive) | > 100 µM (inactive) | > 100 µM (inactive) | > 26.7 µM (inactive) | > 42.2 µM |  | > 49.4 µM (inactive) |  | 66.2 µM (inactive) | > 100 µM (inactive) | 13.9 µM (inactive)
10 | O=c1c(-c2ccccc2)c(O)nc2[nH]c3ccccc3n12 | > 100 µM (inactive) | > 100 µM (inactive) | > 100 µM (inactive) | > 100 µM (inactive) | > 100 µM (inactive) |  | > 100 µM (inactive) | > 100 µM (inactive) | > 100 µM (inactive) | > 100 µM (inactive) | > 100 µM (inactive) | > 100 µM (inactive) | > 100 µM |  | > 100 µM (inactive) |  | > 100 µM (inactive) | > 100 µM (inactive) | 68.1 µM (inactive)
11 | NC(=O)NC1C(C(=O)O)N(Cc2ccccc2)C(=O)N1Cc1ccccc1 (stereo not drawn) | > 100 µM (inactive) | > 100 µM (inactive) | > 100 µM (inactive) | > 100 µM (inactive) | > 100 µM (inactive) |  | > 100 µM (inactive) | > 100 µM (inactive) | > 100 µM (inactive) | > 100 µM (inactive) | > 100 µM (inactive) | > 100 µM (inactive) | > 100 µM |  | > 100 µM (inactive) |  | 3.72 µM (inactive) | > 100 µM (inactive) | > 100 µM (inactive)
12 | COc1ccc2c(c1)CCc1c-2nc2cc3c(cc2c1O)OCO3 | > 100 µM (inactive) | > 100 µM (inactive) | > 100 µM (inactive) | > 100 µM (inactive) | > 100 µM (inactive) |  | > 100 µM (inactive) | > 100 µM (inactive) | > 100 µM (inactive) | > 100 µM (inactive) | > 100 µM (inactive) | > 100 µM (inactive) | > 100 µM |  | > 100 µM (inactive) |  | > 100 µM (inactive) | > 100 µM (inactive) | > 100 µM (inactive)
13 | COc1ccc(OC)c([N+](=O)[O-])c1-c1nc2sc(C)c(C)n2c1/C=N/N=C(N)N | > 100 µM (inactive) | 50.7 µM (inactive) | > 100 µM (inactive) | 43.4 µM (inactive) | 49 µM (inactive) | 76.7 µM (inactive) | > 100 µM (inactive) | 91.6 µM (inactive) | 95.7 µM (inactive) | > 100 µM (inactive) |  | 66.4 µM (inactive) | > 100 µM | 48.3 µM (inactive) | 33.3 µM (inactive) | 24 µM (inactive) | 13.9 µM (inactive) | 21.3 µM (inactive) | 62.4 µM (inactive)
14 | N#C[C@H]1C(=O)C(c2nc3ccccc3[nH]2)S[C@H]1c1ccccc1 (stereo partly drawn) | 19.1 µM (inactive) | 38.4 µM (inactive) |  | 32.2 µM (inactive) | 42 µM (inactive) |  | 85.3 µM (inactive) | 35.1 µM (inactive) | 34.2 µM (inactive) |  | 47.1 µM (inactive) | 32.5 µM (inactive) | 38 µM | 45.2 µM (inactive) | 35.2 µM (inactive) | 28.4 µM (inactive) | 33.7 µM (inactive) |  | 28.8 µM (inactive)
15 | [O-][S+](CC1(O)CCCCC1)c1ccccc1 (stereo not drawn) | > 100 µM (inactive) | > 100 µM (inactive) | > 100 µM (inactive) | > 100 µM (inactive) | > 100 µM (inactive) | > 100 µM (inactive) | > 100 µM (inactive) | > 100 µM (inactive) | > 100 µM (inactive) |  | > 100 µM (inactive) | > 100 µM (inactive) | > 100 µM | > 100 µM (inactive) | > 100 µM (inactive) | > 100 µM (inactive) | > 100 µM (inactive) | > 100 µM (inactive) | > 100 µM (inactive)
16 | CN(C)C(=S)/N=c1\ss/c(=N\C(=S)N(C)C)n1-c1ccc(Cl)c(Cl)c1 | > 100 µM (inactive) | > 100 µM (inactive) | 40.6 µM (inactive) | > 100 µM (inactive) | > 100 µM (inactive) |  | > 100 µM (inactive) | > 100 µM (inactive) | > 100 µM (inactive) | > 100 µM (inactive) | > 100 µM (inactive) | > 100 µM (inactive) | > 100 µM |  | > 100 µM (inactive) |  | > 100 µM (inactive) | > 100 µM (inactive) | > 100 µM (inactive)
17 | CCN(CC)CCNc1ccc2nnn3c4ccccc4c(=O)c1c23 | 4.3 µM (inactive) | 2.86 µM (inactive) | 4.18 µM (inactive) | 2.51 µM (inactive) | 2.86 µM (inactive) |  | 2.01 µM (inactive) | 2.25 µM (inactive) | 3.51 µM (inactive) | 6.84 µM (inactive) | 17.4 µM (inactive) | 1.43 µM (inactive) | 4.51 µM |  | 2.97 µM (inactive) |  | 1.66 µM (inactive) | 6.85 µM (inactive) | 1.15 µM (inactive)
